Source: ChEMBL document CHEMBL1201862, “PubChem BioAssay data set” (2004)
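How tested: cells in 96-well plates exposed to compound for 48 hours at five concentrations. GI50: concentration for 50% inhibition of growth.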 Calls of active or inactive are those of the source. No stated cut-off is given here; in the data, active = GI50 up to about 1.1 µM and inactive = higher.

Legend:
Assay in all cases: inhibition of tumour cell growth, NCI panel, 48 h
UACC-257 = tested on: UACC-257
HOP-62 = tested on: HOP-62
SR = tested on: SR
MCF7 = tested on: MCF7
NCI-H226 = tested on: NCI-H226
SK-OV-3 = tested on: SK-OV-3
SNB-75 = tested on: SNB-75
SF-295 = tested on: SF-295
KM12 = tested on: KM12
HOP-92 = tested on: HOP-92
UO-31 = tested on: UO-31
CCRF-CEM = tested on: CCRF-CEM
A549 = tested on: A549
MDA-MB-435 = tested on: MDA-MB-435
ACHN = tested on: ACHN
PC-3 = tested on: PC-3
OVCAR-5 = tested on: OVCAR-5
SF-539 = tested on: SF-539
HCC 2998 = tested on: HCC 2998
T47D = tested on: T47D

| Structure (SMILES) | GI50 (UACC-257) | GI50 (HOP-62) | GI50 (SR) | GI50 (MCF7) | GI50 (NCI-H226) | GI50 (SK-OV-3) | GI50 (SNB-75) | GI50 (SF-295) | GI50 (KM12) | GI50 (HOP-92) | GI50 (UO-31) | GI50 (CCRF-CEM) | GI50 (A549) | GI50 (MDA-MB-435) | GI50 (ACHN) | GI50 (PC-3) | GI50 (OVCAR-5) | GI50 (SF-539) | GI50 (HCC 2998) | GI50 (T47D) |
| --- | --- | --- | --- | --- | --- | --- | --- | --- | --- | --- | --- | --- | --- | --- | --- | --- | --- | --- | --- | --- |
| O=C1/C(=C/c2cccs2)NC(=S)N1CN1CCCC(CO)C1 (stereo not drawn) | > 100 µM (inactive) | > 100 µM (inactive) | > 100 µM (inactive) | > 100 µM (inactive) | > 100 µM (inactive) | > 100 µM (inactive) | > 100 µM (inactive) | 91.4 µM (inactive) | > 100 µM (inactive) | > 100 µM (inactive) | > 100 µM (inactive) | > 100 µM (inactive) | > 100 µM (inactive) | > 100 µM (inactive) | > 100 µM (inactive) | > 100 µM (inactive) | > 100 µM (inactive) | – | – | – |
| COc1cc(OC)c2c(c1)C(=O)C(CC1(C)OCCCO1)=CC2=O | 13 µM (inactive) | 19.1 µM (inactive) | 1.29 µM (inactive) | – | 19.6 µM (inactive) | 20 µM (inactive) | 11 µM (inactive) | 14.6 µM (inactive) | 14.3 µM (inactive) | 1.83 µM (inactive) | 11 µM (inactive) | 1.74 µM (inactive) | 18.9 µM (inactive) | – | 9.75 µM (inactive) | – | 16.9 µM (inactive) | 12.8 µM (inactive) | 17.9 µM (inactive) | – |
| Ic1cc2c(cc1C1SCCCS1)OCO2 | > 100 µM (inactive) | > 100 µM (inactive) | > 100 µM (inactive) | – | > 100 µM (inactive) | > 100 µM (inactive) | > 100 µM (inactive) | > 100 µM (inactive) | > 100 µM (inactive) | > 100 µM (inactive) | > 100 µM (inactive) | > 100 µM (inactive) | > 100 µM (inactive) | – | > 100 µM (inactive) | – | > 100 µM (inactive) | > 100 µM (inactive) | > 100 µM (inactive) | – |
| COc1c(C2(c3ccc(F)cc3)SCCCS2)c(=O)c1=O | > 100 µM (inactive) | > 100 µM (inactive) | – | > 100 µM (inactive) | > 100 µM (inactive) | > 100 µM (inactive) | > 100 µM (inactive) | > 100 µM (inactive) | > 100 µM (inactive) | > 100 µM (inactive) | > 100 µM (inactive) | > 100 µM (inactive) | > 100 µM (inactive) | > 100 µM (inactive) | > 100 µM (inactive) | > 100 µM (inactive) | > 100 µM (inactive) | > 100 µM (inactive) | > 100 µM (inactive) | – |
| C[N+]1(C)C2Cc3ccccc3C1Cc1ccccc12 | > 100 µM (inactive) | > 100 µM (inactive) | – | > 100 µM (inactive) | > 100 µM (inactive) | > 100 µM (inactive) | – | > 100 µM (inactive) | > 100 µM (inactive) | 61.1 µM (inactive) | > 100 µM (inactive) | > 100 µM (inactive) | > 100 µM (inactive) | > 100 µM (inactive) | > 100 µM (inactive) | 75.7 µM (inactive) | > 100 µM (inactive) | > 100 µM (inactive) | > 100 µM (inactive) | > 100 µM (inactive) |
| CC(=O)OCC1=C(CCC#N)N2C(=O)C(NC(=O)Cc3cccs3)C2[S+]([O-])C1 (stereo not drawn) | > 100 µM (inactive) | > 100 µM (inactive) | > 100 µM (inactive) | – | > 100 µM (inactive) | > 100 µM (inactive) | > 100 µM (inactive) | > 100 µM (inactive) | > 100 µM (inactive) | > 100 µM (inactive) | > 100 µM (inactive) | > 100 µM (inactive) | > 100 µM (inactive) | – | > 100 µM (inactive) | – | > 100 µM (inactive) | > 100 µM (inactive) | > 100 µM (inactive) | – |
| COc1cc2c(c(OC)c1OC)-c1ccc(SC)c(=O)cc1[C@@H](NC(=O)c1ccc(C#N)cc1)CC2 | < 0.01 µM (active) | < 0.01 µM (active) | < 0.01 µM (active) | – | < 0.01 µM (active) | < 0.01 µM (active) | 0.146 µM (active) | < 0.01 µM (active) | < 0.01 µM (active) | < 0.01 µM (active) | < 0.01 µM (active) | < 0.01 µM (active) | < 0.01 µM (active) | – | < 0.01 µM (active) | – | < 0.01 µM (active) | < 0.01 µM (active) | < 0.01 µM (active) | – |
| Cc1ccc([N+](=O)[O-])cc1NC(=O)C(=O)Cc1cc(=O)oc2cc(O)ccc12 | > 100 µM (inactive) | > 100 µM (inactive) | 32.4 µM (inactive) | – | > 100 µM (inactive) | > 100 µM (inactive) | > 100 µM (inactive) | > 100 µM (inactive) | > 100 µM (inactive) | > 100 µM (inactive) | > 100 µM (inactive) | 39.1 µM (inactive) | > 100 µM (inactive) | – | > 100 µM (inactive) | – | > 100 µM (inactive) | > 100 µM (inactive) | > 100 µM (inactive) | – |
